“Also recorded” adds a separate entry of the source.
Columns and labels:
[1] = system: U2OS.eGFP.PEST cells; experiment: Cell viability assay (ATP content), U2OS.eGFP.PEST cells; type: cell-based, human; conditions: up to 20 μM, 24 h
Protocol: FIG. 22—Cell viability assay (ATP content) of U2OS.eGFP.PEST cells in the presence of compounds. Measurement ATP content of U2OS.eGFP.PEST cells upon incubating with BRD7087 and BRD5779 (5-20 μM) for 24 h. Error bars represent ±S.D. from technical replicates (n=3).
FIG. 66. Cell viability assay (ATP content) of U2OS.eGFP.PEST cells in the presence of compounds. Measurement of ATP content of U2OS.eGFP.PEST cells upon incubating with BRD7087 and BRD5779 (5-20 μM) for 24 h. Error bars represent ±S.D. from technical replicates (n=3).

[2] = system: HEK293T cells; experiment: Cell viability assay (ATP content), HEK293T cells; type: cell-based; conditions: up to 20 μM, 24 h
Protocol: FIG. 23—Cell viability assay (ATP content) of […] cells in the presence of compounds. Measurement of ATP content of HEK293T cells upon incubating with BRD7087 and BRD5779 (5-20 μM) for 24 h. Error bars represent ±S.D. from technical replicates (n=3).
FIG. 67. Cell viability assay (ATP content) of HEK293T cells in the presence of compounds. Measurement of ATP content of HEK293T cells upon incubating with BRD7087 and BRD5779 (5-20 μM) for 24 h. Error bars represent ±S.D. from technical replicates (n=3).

[3] = molecular target: SpCas9 (Streptococcus pyogenes serotype M1, UniProt Q99ZW2); experiment: mCherry-GFP NHEJ assay; type: cell-based; conditions: HEK293T cells; 2-10 μM; 24 h
Protocol: NHEJ assay. Approximately 8,000 cells/well were plated in a 96-well format 24 h before transiently transfected with a total 100 ng of DN66 (mCherry-TAG-GFP reporter) and DN78 (SpCas9 and gRNA) plasmids (1:1) using lipofectamine 2000 (Life Technologies) 3. Transfected cells were allowed to grow in the indicated amount of compound or DMSO for 24 h. Cells were then fixed using 4% paraformaldehyde and imaged with the HCS NuclearMask™ Blue Stain (Life Technologies) as the nuclear counter-staining agent. Imaging was performed with an IXM 137204 ImageXpress Automated High Content Microscope (Molecular Devices) at 20× magnification under three excitation channels (blue, green and red) with 9 acquiring sites per well. Images were analyzed in the MetaXpress software to determine the % NHEJ and the data were plotted using GraphPad Prism 6. The Z′-value was calculated following the formula: […]

[4] = molecular target: T1, dCas9-cytidine deaminase conjugate (BE3) (UniProt P14739+P38483+Q99ZW2, D10A); experiment: BE3 base-editing of EMX1 gene in HEK293T cells; type: cell-based; conditions: 1.25-20 μM, 72 h
T1 construct: made in house; host or cells: E. coli BL21 Star (DE3); purified protein:sgRNA complex lipofected into HEK293T cells
Protocol: Protein transfection of base editor BE3 into HEK293T cells. HEK293T cells were seeded on 48-well BioCoat poly-D-lysine plates (Corning) in 250 μL of antibiotic-free medium and transfected at ˜70% confluency. Prior to protein transfection, cells were incubated with 2 μL of DMSO-suspended BRD7087 or BRD5779 at the indicated concentration for 2-3 hours. BE3 protein was incubated with 1.1× molar excess of EMX1-targeting sgRNA at a final concentration ratio of 200 nM. 220 nM (based on a total well volume of 275 μL). The complex was mixed with 0.2 μL of compound for five minutes, incubated with 1.5 μL Lipofectamine 2000 (Thermo Fisher) and transfected according to the manufacturer's protocol plasmid delivery. […]
Purifications and sequencing of genomic DNA. […] Barcoded samples were pooled and purified by gel extraction (Qiagen) before quantification using the Qubit dsDNA HS Kit (Thermo Fisher) and qPCR (KAPA BioSystems) according to the manufacturer's instructions. Sequencing of pooled samples was performed using a single-end read from 260 to 300 bases on the MiSeq (Illumina) according to the manufacturer's instructions.
Analysis of base-edited sequences. Nucleotide frequencies were analyzed using a previously described MATLAB script 5. Briefly, the reads were aligned to the reference sequence via the Smith-Waterman algorithm. […]

Chain of SpCas9 (Q99ZW2 whole entry): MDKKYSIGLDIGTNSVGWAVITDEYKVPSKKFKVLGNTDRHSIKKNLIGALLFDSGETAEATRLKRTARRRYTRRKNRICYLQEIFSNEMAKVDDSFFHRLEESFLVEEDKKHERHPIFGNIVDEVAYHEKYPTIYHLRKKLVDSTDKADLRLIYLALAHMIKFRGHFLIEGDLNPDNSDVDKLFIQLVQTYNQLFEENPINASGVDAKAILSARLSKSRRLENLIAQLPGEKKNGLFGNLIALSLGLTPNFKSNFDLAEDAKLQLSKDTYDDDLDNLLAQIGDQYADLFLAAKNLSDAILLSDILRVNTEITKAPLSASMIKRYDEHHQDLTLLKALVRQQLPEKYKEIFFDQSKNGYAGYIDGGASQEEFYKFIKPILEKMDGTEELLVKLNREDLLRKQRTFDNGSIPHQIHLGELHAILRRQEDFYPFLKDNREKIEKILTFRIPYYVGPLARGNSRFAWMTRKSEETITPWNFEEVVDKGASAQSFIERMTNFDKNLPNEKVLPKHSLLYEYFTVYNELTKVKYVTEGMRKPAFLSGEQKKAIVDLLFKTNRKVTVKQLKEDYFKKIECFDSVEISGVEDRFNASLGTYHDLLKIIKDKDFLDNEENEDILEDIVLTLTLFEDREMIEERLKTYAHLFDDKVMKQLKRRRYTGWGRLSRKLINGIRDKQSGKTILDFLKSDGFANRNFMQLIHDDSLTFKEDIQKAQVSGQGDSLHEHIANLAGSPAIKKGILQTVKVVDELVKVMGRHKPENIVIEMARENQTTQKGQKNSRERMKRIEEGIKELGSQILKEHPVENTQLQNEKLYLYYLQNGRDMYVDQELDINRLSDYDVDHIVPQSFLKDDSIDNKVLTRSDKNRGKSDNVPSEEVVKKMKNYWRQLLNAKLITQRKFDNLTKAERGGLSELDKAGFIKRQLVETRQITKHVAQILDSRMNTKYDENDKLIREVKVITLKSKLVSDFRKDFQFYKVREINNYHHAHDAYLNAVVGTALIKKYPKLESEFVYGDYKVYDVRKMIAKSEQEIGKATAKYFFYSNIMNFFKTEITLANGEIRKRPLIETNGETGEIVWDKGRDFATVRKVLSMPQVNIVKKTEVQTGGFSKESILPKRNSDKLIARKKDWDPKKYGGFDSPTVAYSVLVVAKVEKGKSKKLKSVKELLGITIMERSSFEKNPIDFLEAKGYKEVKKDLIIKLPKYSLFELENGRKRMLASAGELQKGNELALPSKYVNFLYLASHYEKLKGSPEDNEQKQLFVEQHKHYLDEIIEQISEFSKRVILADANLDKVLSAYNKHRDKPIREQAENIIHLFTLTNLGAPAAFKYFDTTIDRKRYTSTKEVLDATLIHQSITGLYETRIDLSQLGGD

SMILES	cytotoxicity: cellular ATP-levels [1]	cytotoxicity: cellular ATP-levels [2]	inhibition of SpCas9-mediated NHEJ [3]	inhibition of BE3-mediated base-editing (C→T conversion, words) [4]
COc1ccc(-c2ccc3c(c2)[C@H]2[C@H](CCN2Cc2ccncc2)[C@@H](CO)N3)cc1 [BRD5779, ((3aR,4S,9bR)-8-(4-Methoxyphenyl)-1-(pyridin-4-ylmethyl)-2,3,3a,4,5,9b-hexahydro-1H-pyrrolo[3,2-c]quinolin-4-yl)methanol]	did not significantly alter the cellular ATP-levels	did not significantly alter the cellular ATP-levels	Dose-dependent inhibition of SpCas9-mediated NHEJ; also recorded: active	efficient and dose-dependent inhibition
OC[C@H]1Nc2ccc(-c3cccc(F)c3)cc2[C@H]2[C@@H]1CCN2Cc1ccncc1 [BRD7087, ((3aR,4S,9bR)-8-(3-Fluorophenyl)-1-(pyridin-4-ylmethyl)-2,3,3a,4,5,9b-hexahydro-1H-pyrrolo[3,2-c]quinolin-4-yl)methanol]	did not significantly alter the cellular ATP-levels	did not significantly alter the cellular ATP-levels	Dose-dependent inhibition of SpCas9-mediated NHEJ; also recorded: active	efficient and dose-dependent inhibition

Reference: US11760984B2, “CRISPR protein inhibitors” (THE BROAD INSTITUTE, INC., priority 2017, dated 2023)
